Source: patent publication US20230085307A1, “PYRIDAZINONE COMPOUND AND HERBICIDE” (NISSAN CHEMICAL CORPORATION, priority 2019, published 2023)

Legend:
Italian ryegrass [1] = test: Test Example 4: herbicidal effect by soil treatment (Table 19, symbol K); format: in vivo, Italian ryegrass (Lolium multiflorum)
Summary of the method: (§1)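 Step 1: sow seeds in sterilized diluvial soil, cover ~1.5 cm. Step 2: spray diluted emulsion onto soil surface at predetermined rate. Step 3: greenhouse, 25–30° C, three weeks. Step 4: grade effect on each plant by earlier criteria.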

green foxtail [2] = test: Test Example 5: herbicidal effect by foliage application, plastic box (Table 20, symbol G); format: in vivo, green foxtail (Setaria viridis); details: foliage application, 320 g/ha, evaluated three weeks after application
Summary of the method: (§2)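 Foliar spray test: emulsion formulation diluted in water to a set application rate, sprayed onto 14-day-old plants raised in diluvial soil at 25° C to 30° C under glass. Both herbicidal effect and crop effect rated visually three weeks later.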

velvetleaf [3] = test: Test Example 5: herbicidal effect by foliage application, plastic box (Table 20, symbol M); format: in vivo, velvetleaf (Abutilon theophrasti); details: foliage application, 320 g/ha, evaluated three weeks after application
Summary of the method: as §2

rice flat sedge = test: Test Example 3: herbicidal effect by foliage application, Wagner pot (Table 18, symbol E); format: in vivo, rice flat sedge (Cyperus iria)
Summary of the method: (§3)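 Plants were sown in alluvial soil held under 0.1–0.5 cm standing water and grown 14 days in a greenhouse at 25–30 °C. An emulsifiable formulation, water-diluted to the set dose, was then sprayed onto the foliage, and effects were scored three weeks later using previously defined criteria.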

false cleavers = test: Test Example 5: herbicidal effect by foliage application, plastic box (Table 20, symbol Q); format: in vivo, false cleavers (Galium spurium); details: foliage application, 320 g/ha, evaluated three weeks after application
Summary of the method: as §2

blackgrass [4] = test: Test Example 4: herbicidal effect by soil treatment (Table 19, symbol J); format: in vivo, blackgrass (Alopecurus myosuroides)
Summary of the method: as §1

windgrass [5] = test: Test Example 5: herbicidal effect by foliage application, plastic box (Table 20, symbol L); format: in vivo, windgrass (Apera spica-venti); details: foliage application, 320 g/ha, evaluated three weeks after application
Summary of the method: as §2

late watergrass = test: Test Example 1: herbicidal activity, application before weed generation under submerged conditions (Table 16, symbol A); format: in vivo, late watergrass (Echinochloa oryzicola); details: 320 g/ha applied herbicide
Summary of the method: (§4)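 Submerged Wagner pots (alluvial soil, 4 cm water) sown with weed seeds and planted with 2.5-leaf rice seedlings; emulsifiable concentrate diluted in water applied to water surface on sowing day. Held in greenhouse at 25-30 °C; injury scored 0-5 by herbicidal rate after three weeks.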

velvetleaf [6] = test: Test Example 4: herbicidal effect by soil treatment (Table 19, symbol M); format: in vivo, velvetleaf (Abutilon theophrasti)
Summary of the method: as §1

windgrass [7] = test: Test Example 4: herbicidal effect by soil treatment (Table 19, symbol L); format: in vivo, windgrass (Apera spica-venti)
Summary of the method: as §1

persian speedwell [8] = test: Test Example 5: herbicidal effect by foliage application, plastic box (Table 20, symbol R); format: in vivo, Persian speedwell (Veronica persica); details: foliage application, 320 g/ha, evaluated three weeks after application
Summary of the method: as §2

southern crabgrass [9] = test: Test Example 4: herbicidal effect by soil treatment (Table 19, symbol F); format: in vivo, southern crabgrass (Digitaria ciliaris)
Summary of the method: as §1

lambsquarters [10] = test: Test Example 5: herbicidal effect by foliage application, plastic box (Table 20, symbol O); format: in vivo, lambsquarters (Chenopodium album); details: foliage application, 320 g/ha, evaluated three weeks after application
Summary of the method: as §2

blackgrass [11] = test: Test Example 5: herbicidal effect by foliage application, plastic box (Table 20, symbol J); format: in vivo, blackgrass (Alopecurus myosuroides); details: foliage application, 320 g/ha, evaluated three weeks after application
Summary of the method: as §2

lambsquarters [12] = test: Test Example 4: herbicidal effect by soil treatment (Table 19, symbol O); format: in vivo, lambsquarters (Chenopodium album)
Summary of the method: as §1

Italian ryegrass [13] = test: Test Example 5: herbicidal effect by foliage application, plastic box (Table 20, symbol K); format: in vivo, Italian ryegrass (Lolium multiflorum); details: foliage application, 320 g/ha, evaluated three weeks after application
Summary of the method: as §2

Japanese bulrush = test: Test Example 1: herbicidal activity, application before weed generation under submerged conditions (Table 16, symbol B); format: in vivo, Japanese bulrush (Schoenoplectus juncoides); details: 320 g/ha applied herbicide
Summary of the method: as §4

Chinese sprangletop = test: Test Example 3: herbicidal effect by foliage application, Wagner pot (Table 18, symbol D); format: in vivo, chinese sprangletop (Leptochloa chinensis)
Summary of the method: as §3

oval-leafed pondweed = test: Test Example 1: herbicidal activity, application before weed generation under submerged conditions (Table 16, symbol C); format: in vivo, oval-leafed pondweed (Monochoria vaginalis); details: 320 g/ha applied herbicide
Summary of the method: as §4

wild oat [14] = test: Test Example 4: herbicidal effect by soil treatment (Table 19, symbol I); format: in vivo, wild oat (Avena fatua)
Summary of the method: as §1

barnyard grass [15] = test: Test Example 3: herbicidal effect by foliage application, Wagner pot (Table 18, symbol H); format: in vivo, barnyard grass (Echinochloa crus-galli)
Summary of the method: as §3

redroot pigweed [16] = test: Test Example 4: herbicidal effect by soil treatment (Table 19, symbol N); format: in vivo, redroot pigweed (Amaranthus retroflexus)
Summary of the method: as §1

barnyard grass [17] = test: Test Example 5: herbicidal effect by foliage application, plastic box (Table 20, symbol H); format: in vivo, barnyard grass (Echinochloa crus-galli); details: foliage application, 320 g/ha, evaluated three weeks after application
Summary of the method: as §2

redroot pigweed [18] = test: Test Example 5: herbicidal effect by foliage application, plastic box (Table 20, symbol N); format: in vivo, redroot pigweed (Amaranthus retroflexus); details: foliage application, 320 g/ha, evaluated three weeks after application
Summary of the method: as §2

southern crabgrass [19] = test: Test Example 5: herbicidal effect by foliage application, plastic box (Table 20, symbol F); format: in vivo, southern crabgrass (Digitaria ciliaris); details: foliage application, 320 g/ha, evaluated three weeks after application
Summary of the method: as §2

green foxtail [20] = test: Test Example 4: herbicidal effect by soil treatment (Table 19, symbol G); format: in vivo, green foxtail (Setaria viridis)
Summary of the method: as §1

wild oat [21] = test: Test Example 5: herbicidal effect by foliage application, plastic box (Table 20, symbol I); format: in vivo, wild oat (Avena fatua); details: foliage application, 320 g/ha, evaluated three weeks after application
Summary of the method: as §2

chickweed [22] = test: Test Example 4: herbicidal effect by soil treatment (Table 19, symbol P); format: in vivo, common chickweed (Stellaria media)
Summary of the method: as §1

barnyard grass [23] = test: Test Example 4: herbicidal effect by soil treatment (Table 19, symbol H); format: in vivo, barnyard grass (Echinochloa crus-galli)
Summary of the method: as §1

chickweed [24] = test: Test Example 5: herbicidal effect by foliage application, plastic box (Table 20, symbol P); format: in vivo, common chickweed (Stellaria media); details: foliage application, 320 g/ha, evaluated three weeks after application
Summary of the method: as §2

persian speedwell [25] = test: Test Example 4: herbicidal effect by soil treatment (Table 19, symbol R); format: in vivo, Persian speedwell (Veronica persica)
Summary of the method: as §1

[26] = amount of applied herbicide 320 g/ha

Structure (SMILES)	herbicidal effect on G: green foxtail (green foxtail [2])	herbicidal effect on M: velvetleaf (velvetleaf [3])	herbicidal effect on Q: false cleavers (false cleavers)	herbicidal effect on L: windgrass (windgrass [5])	Herbicidal effect on A: late watergrass (grade 0-5) (late watergrass)	herbicidal effect on R: persian speedwell (persian speedwell [8])	herbicidal effect on O: lambsquarters (lambsquarters [10])	herbicidal effect on J: blackgrass (blackgrass [11])	herbicidal effect on K: Italian ryegrass (Italian ryegrass [13])	Herbicidal effect on B: Japanese bulrush (grade 0-5) (Japanese bulrush)	Herbicidal effect on C: oval-leafed pondweed (grade 0-5) (oval-leafed pondweed)	herbicidal effect on H: barnyard grass (barnyard grass [17])	herbicidal effect on N: redroot pigweed (redroot pigweed [18])	herbicidal effect on F: southern crabgrass (southern crabgrass [19])	herbicidal effect on I: wild oat (wild oat [21])	herbicidal effect on P: chickweed (chickweed [24])	other results
Cc1nn(C)c(=O)c(-c2c(-c3ccc4c(c3)OCO4)sc3ccc(Cl)cc23)c1O [2-125]	0 (Herbicidal rate of 5% or less (almost no effect))	4 (Herbicidal rate of 70% or more and less than 90%)	3 (Herbicidal rate of 40% or more and less than 70%)	0 (Herbicidal rate of 5% or less (almost no effect))	0 (Herbicidal rate of 5% or less (almost no effect))	5 (Herbicidal rate of 90% or more (almost completely withered))	4 (Herbicidal rate of 70% or more and less than 90%)	0 (Herbicidal rate of 5% or less (almost no effect))	0 (Herbicidal rate of 5% or less (almost no effect))	2 (Herbicidal rate of 20% or more and less than 40%)	0 (Herbicidal rate of 5% or less (almost no effect))	2 (Herbicidal rate of 20% or more and less than 40%)	3 (Herbicidal rate of 40% or more and less than 70%)	0 (Herbicidal rate of 5% or less (almost no effect))	0 (Herbicidal rate of 5% or less (almost no effect))	5 (Herbicidal rate of 90% or more (almost completely withered))	K: Italian ryegrass, herbicidal effect rating (Italian ryegrass [1]; [26]): 0 (Herbicidal rate of 5% or less (almost no effect)); herbicidal effect on E: rice flat sedge (rice flat sedge; [26]): 5 (Herbicidal rate of 90% or more (almost completely withered)); J: blackgrass, herbicidal effect rating (blackgrass [4]; [26]): 0 (Herbicidal rate of 5% or less (almost no effect)); M: velvetleaf, herbicidal effect rating (velvetleaf [6]; [26]): 3 (Herbicidal rate of 40% or more and less than 70%); L: windgrass, herbicidal effect rating (windgrass [7]; [26]): 0 (Herbicidal rate of 5% or less (almost no effect)); F: southern crabgrass, herbicidal effect rating (southern crabgrass [9]; [26]): 0 (Herbicidal rate of 5% or less (almost no effect)); O: lambsquarters, herbicidal effect rating (lambsquarters [12]; [26]): 4 (Herbicidal rate of 70% or more and less than 90%); herbicidal effect on D: Chinese sprangletop (Chinese sprangletop; [26]): 3 (Herbicidal rate of 40% or more and less than 70%); I: wild oat, herbicidal effect rating (wild oat [14]; [26]): 0 (Herbicidal rate of 5% or less (almost no effect)); herbicidal effect on H: barnyard grass (barnyard grass [15]; [26]): 4 (Herbicidal rate of 70% or more and less than 90%); N: redroot pigweed, herbicidal effect rating (redroot pigweed [16]; [26]): 5 (Herbicidal rate of 90% or more (almost completely withered)); G: green foxtail, herbicidal effect rating (green foxtail [20]; [26]): 0 (Herbicidal rate of 5% or less (almost no effect)); P: chickweed, herbicidal effect rating (chickweed [22]; [26]): 5 (Herbicidal rate of 90% or more (almost completely withered)); H: barnyard grass, herbicidal effect rating (barnyard grass [23]; [26]): 0 (Herbicidal rate of 5% or less (almost no effect)); R: persian speedwell, herbicidal effect rating (persian speedwell [25]; [26]): 5 (Herbicidal rate of 90% or more (almost completely withered))
COc1cc(F)ccc1-c1sc2ccc(F)cc2c1-c1c(O)c(C)nn(C)c1=O [2-083]	5 (Herbicidal rate of 90% or more (almost completely withered))	5 (Herbicidal rate of 90% or more (almost completely withered))	5 (Herbicidal rate of 90% or more (almost completely withered))	5 (Herbicidal rate of 90% or more (almost completely withered))	2 (Herbicidal rate of 20% or more and less than 40%)	5 (Herbicidal rate of 90% or more (almost completely withered))	5 (Herbicidal rate of 90% or more (almost completely withered))	5 (Herbicidal rate of 90% or more (almost completely withered))	4 (Herbicidal rate of 70% or more and less than 90%)	1 (Herbicidal rate of 5% or more and less than 20%)	3 (Herbicidal rate of 40% or more and less than 70%)	5 (Herbicidal rate of 90% or more (almost completely withered))	5 (Herbicidal rate of 90% or more (almost completely withered))	4 (Herbicidal rate of 70% or more and less than 90%)	5 (Herbicidal rate of 90% or more (almost completely withered))	5 (Herbicidal rate of 90% or more (almost completely withered))	herbicidal effect rating, K: Italian ryegrass (Italian ryegrass [1]; 320 g/ha): 0 (Herbicidal rate of 5% or less (almost no effect)); herbicidal effect on E (rice flat sedge), rating 0-5 (rice flat sedge; 320 g/ha): 5 (Herbicidal rate of 90% or more (almost completely withered)); herbicidal effect rating, J: blackgrass (blackgrass [4]; 320 g/ha): 5 (Herbicidal rate of 90% or more (almost completely withered)); herbicidal effect rating, M: velvetleaf (velvetleaf [6]; 320 g/ha): 2 (Herbicidal rate of 20% or more and less than 40%); herbicidal effect rating, L: windgrass (windgrass [7]; 320 g/ha): 4 (Herbicidal rate of 70% or more and less than 90%); herbicidal effect rating, F: southern crabgrass (southern crabgrass [9]; 320 g/ha): 4 (Herbicidal rate of 70% or more and less than 90%); herbicidal effect rating, O: lambsquarters (lambsquarters [12]; 320 g/ha): 5 (Herbicidal rate of 90% or more (almost completely withered)); herbicidal effect on D (Chinese sprangletop), rating 0-5 (Chinese sprangletop; 320 g/ha): 4 (Herbicidal rate of 70% or more and less than 90%); herbicidal effect rating, I: wild oat (wild oat [14]; 320 g/ha): 3 (Herbicidal rate of 40% or more and less than 70%); herbicidal effect on H (barnyard grass), rating 0-5 (barnyard grass [15]; 320 g/ha): 5 (Herbicidal rate of 90% or more (almost completely withered)); herbicidal effect rating, N: redroot pigweed (redroot pigweed [16]; 320 g/ha): 5 (Herbicidal rate of 90% or more (almost completely withered)); herbicidal effect rating, G: green foxtail (green foxtail [20]; 320 g/ha): 2 (Herbicidal rate of 20% or more and less than 40%); herbicidal effect rating, P: chickweed (chickweed [22]; 320 g/ha): 4 (Herbicidal rate of 70% or more and less than 90%); herbicidal effect rating, H: barnyard grass (barnyard grass [23]; 320 g/ha): 1 (Herbicidal rate of 5% or more and less than 20%); herbicidal effect rating, R: persian speedwell (persian speedwell [25]; 320 g/ha): 4 (Herbicidal rate of 70% or more and less than 90%)
